Results: article PMC12535076, “Neurotherapeutic effects of Vutiglabridin as a Paraoxonase-2 modulator in preclinical models of Parkinson’s disease” (Molecular Neurodegeneration, 2025)

Assays:
[1] = Octanol-water partition coefficient measurement; format: physicochemical; conditions: octanol / pH 7.4 phosphate buffer, octanol / pH7.4 phosphate buffer, room temperature 24 h, aqueous phase below LOQ, LOQ value used, read-out: octanol-water partition coefficient (log D)
Method: 1000 µg/mL of Vuti was mixed with octanol, and an aliquot of 2 mL was mixed with the same amount of aliquot of 2 mL of pH7.4 phosphate buffer. The mixed solution was shaken at room temperature for 24 h, and the aqueous and octanol phase was separately analyzed for Vuti concentration via HLPC. The limit of quantification (LOQ) was 0.2012 µg/ml. Three replicates were performed. Because no concentration was detected in the aqueous phase, LOQ value was used; the actual concentration in the aqueous phase is expected to be lower than LOQ. The octanol-water partition coefficient Log D was calculated as log of concentration in octanol phase divided by concentration in aqueous phase.
(§1) (a) Measurement of Vuti concentration in octanol and aqueous phase (pH7.4 phosphate buffer) via HPLC. The mean value of three replicates was used, and the limit of quantification (LOQ) value was used to calculate Log D as a log of concentration in the octanol phase divided by the concentration in the aqueous phase. (b) Efflux ratios (Papp(B→A)/Papp(A→B)) of Vuti in three types of cell monolayers, with or without P-glycoprotein (P-gp) inhibitor GF120918. (c) Schematic of 14C-labeling of Vuti. Attachment to the ethoxy group is warranted because it is robustly maintained throughout metabolism. (d) Plasma radioactivity concentration in Sprague-Dawley rats after a single administration of 10 mg/kg of 14C-Vuti (n = 3).

Sprague-Dawley rats = experiment: Functional observational battery (FOB) evaluation; format: in vivo, rat; conditions: male SD rats, single oral 500, 1000, 2000 mg/kg; 0.5, 1, 3, 6, 24 h
Method: To further investigate the potential neurotoxicity of Vuti in vivo, a standard functional observational battery (FOB) evaluation was performed. Male Sprague-Dawley rats were administered single high doses of Vuti – 500, 1000, and 2000 mg/kg. Subsequently, two observers blindly scored the behavior of animals in the home cage, open field, hand-held, and sensory-motor function at time points of 0.5, 1, 3, 6, and 24 h.
Male 6-week-old Sprague-Dawley Rat was orally administered with 0, 500, 1000, or 2000 mg/kg of Vuti (n = 8 per group). Two observers performed blind observations following the standard guideline (3) at 0.5, 1-, 3-, 6-, and 24-hours post-dose on the basis of the pharmacokinetics parameters. […] NC = No change, NSC = No statistically significant change.

[2] = target: T1, P-glycoprotein (P-gp, MDR1) (Homo sapiens, UniProt P08183); experiment: P-glycoprotein (P-gp) efflux assay in cell monolayers; format: in vitro ADME; conditions: MDCKII, MDCKII-hMDR1 and Caco-2 monolayers, with and without P-gp inhibitor GF120918
T1 construct: expressed in transfected cells; host or cells: MDCKII-hMDR1 (canine kidney cells carrying human MDR1); also parental MDCKII and Caco-2 (endogenous human P-gp)
Method: P-gp efflux ratio was determined in MDCKII-hMDR1, MDCKII [61], and Caco-2 cell monolayer via LC-MS/MS analysis, in accordance with the standard FDA guideline on transporter-mediated drug interactions. 10 µM of GF120918 was used as P-gp inhibitor. The apical (A-to-B) and basolateral (B-to-A) permeability coefficient (Papp) were measured to yield the efflux ratio.
as §1

PON2 = target: T2, PON2 (Mus musculus, UniProt Q62086); experiment: PON2 activity assay (esterase and lactonase) in A53T-infected astrocytes; format: cell-based; conditions: primary cultured astrocytes infected with A53T virus, Vuti 24 h
T2 construct: we infected a primary cultured cortical astrocytes with AAV-CMV-αsyn-A53T virus; endogenous in cells; host or cells: primary cultured cortical astrocytes infected with AAV-CMV-αsyn-A53T
Method: To assess PON2 activity following Vuti treatment, we infected a primary cultured cortical astrocytes with AAV-CMV-αsyn-A53T virus. Five days post-infection, we treated the cells with Vuti for 24 h and conducted esterase and lactonase assays. For the esterase activity evaluation, reactions were initiated by adding 1 mM p-nitrophenyl acetate (pNPA) to the PON2 activity assay buffer. Enzymatic hydrolysis was monitored by measuring the absorbance at 412 nm. For lactonase activity, the reactions were initiated with 1 mM thio-butyrolactone (TBBL) and 1 mM 5,5’-dithiobis(2-nitrobenzoic acid) (DTNB) in the PON2 activity assay buffer, with absorbance measured at 420 nm to monitor enzymatic hydrolysis.

[3] = target: T3, PON2 in mouse brain tissue (Mus musculus, UniProt Q62086); experiment: Cellular thermal shift assay (CESTA) of PON2 in brain tissue; format: binding
T3 construct: Brain tissue pieces were pulverized under frozen conditions in a mortar with liquid nitrogen; from tissue; host or cells: brain tissue of mice dosed orally with vehicle or Vuti for 5 days
Method: Interaction of PON2 and Vuti in mouse brain tissue was evaluated by Cellular Thermal Shift Assay (CESTA®) in vivo [65] (Pelago Bioscience AB, Solna, Sweden). Briefly, mice were orally administered vehicle or Vuti at 50 mg/kg (Vuti 50) or 100 mg/kg (Vuti 100) for 5 days. Brain tissue pieces were pulverized under frozen conditions in a mortar with liquid nitrogen. Equal amounts of tissue powder were placed into 8 or 12 separate PCR strip tubes for each set of the treated tissues and kept frozen until heat challenged. Pre-heated 60 µl HBSS buffer was added to the tubes and samples were immediately subjected to an 8 or 12-step heat challenge for 3 min between 37 °C and 59 °C. Samples were then snap-frozen in liquid nitrogen and lysed by freeze-thawing. After the first round of freeze thawing 1% Brij 35 was added to the samples and the samples were incubated with shaking for 20 min at 4 °C before the two last rounds of freeze thawing. After centrifugation at 20 000 x g for 20 min, 35 µl of the supernatant was mixed with 17,5 µl gel loading buffer (NuPAGE LDS sample buffer, Thermo Fisher Scientific, Waltham, MA, USA). Total protein lysate (6 µg) was separated on 12% SDS-PAGE gels. […] Western Blot detected PON2 protein (abcam, ab183718) normalized to SOD-1, a temperature stable protein band observed in the full protein gel detection with house-keeping gene.

T3 sequence (Q62086 whole entry): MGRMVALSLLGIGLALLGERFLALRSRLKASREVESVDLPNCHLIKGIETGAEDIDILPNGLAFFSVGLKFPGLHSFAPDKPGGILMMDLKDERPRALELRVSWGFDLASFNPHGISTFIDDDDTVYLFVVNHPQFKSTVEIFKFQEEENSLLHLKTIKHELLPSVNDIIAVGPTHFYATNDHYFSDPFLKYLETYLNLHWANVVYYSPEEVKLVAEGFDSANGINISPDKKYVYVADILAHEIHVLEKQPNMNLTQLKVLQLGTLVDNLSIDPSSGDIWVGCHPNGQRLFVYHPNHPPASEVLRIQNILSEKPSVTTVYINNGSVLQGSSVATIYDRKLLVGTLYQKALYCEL
T1 sequence (P08183 whole entry): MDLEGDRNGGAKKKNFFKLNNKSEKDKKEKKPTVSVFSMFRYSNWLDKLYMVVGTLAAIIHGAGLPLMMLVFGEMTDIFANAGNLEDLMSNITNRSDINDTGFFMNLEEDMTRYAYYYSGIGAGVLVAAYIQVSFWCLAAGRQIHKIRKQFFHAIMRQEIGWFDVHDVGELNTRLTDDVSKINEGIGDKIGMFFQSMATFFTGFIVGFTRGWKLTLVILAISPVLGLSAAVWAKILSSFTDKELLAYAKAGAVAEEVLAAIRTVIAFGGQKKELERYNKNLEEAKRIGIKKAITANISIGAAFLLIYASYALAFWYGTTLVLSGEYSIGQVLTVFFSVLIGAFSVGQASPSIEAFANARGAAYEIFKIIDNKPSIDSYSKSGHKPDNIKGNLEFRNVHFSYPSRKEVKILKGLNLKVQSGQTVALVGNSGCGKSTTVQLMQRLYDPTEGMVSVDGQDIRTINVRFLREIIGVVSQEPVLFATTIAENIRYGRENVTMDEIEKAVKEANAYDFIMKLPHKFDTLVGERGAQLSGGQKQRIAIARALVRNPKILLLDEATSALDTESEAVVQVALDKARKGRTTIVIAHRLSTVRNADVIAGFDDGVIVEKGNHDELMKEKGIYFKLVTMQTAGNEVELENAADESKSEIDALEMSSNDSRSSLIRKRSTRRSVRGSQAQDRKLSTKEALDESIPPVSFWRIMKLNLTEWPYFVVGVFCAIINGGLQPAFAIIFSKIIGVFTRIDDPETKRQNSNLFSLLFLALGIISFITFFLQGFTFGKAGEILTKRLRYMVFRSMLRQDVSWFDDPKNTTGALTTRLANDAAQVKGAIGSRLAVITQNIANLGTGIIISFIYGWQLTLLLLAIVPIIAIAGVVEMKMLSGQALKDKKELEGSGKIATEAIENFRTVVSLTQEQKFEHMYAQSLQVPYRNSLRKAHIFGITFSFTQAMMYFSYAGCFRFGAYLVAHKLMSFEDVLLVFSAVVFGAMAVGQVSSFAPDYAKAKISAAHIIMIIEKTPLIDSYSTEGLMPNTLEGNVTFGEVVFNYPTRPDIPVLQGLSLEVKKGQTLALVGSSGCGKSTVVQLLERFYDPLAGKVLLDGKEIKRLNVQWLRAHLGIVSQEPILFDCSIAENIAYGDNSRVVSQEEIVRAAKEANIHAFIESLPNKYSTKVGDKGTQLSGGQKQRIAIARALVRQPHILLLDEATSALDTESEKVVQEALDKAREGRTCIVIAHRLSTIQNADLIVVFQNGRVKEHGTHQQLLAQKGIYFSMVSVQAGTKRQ

Q: With `CCOc1ccc(C2COc3c(ccc4c3CCC(C)(C)O4)C2)c(O)c1` (stereo not drawn) [Vuti, Vutiglabridin] as the compound, how does the logD at 24 h [1] read?
A: > 3.69

Q: And the “behaviors in FOB (home cage, open field, hand-held, sensory-motor function)” value (Sprague-Dawley rats)?
A: did not induce statistically significant changes

Q: What about the “efflux ratio (Papp(B→A)/Papp(A→B))” value [2] of the same compound?
A: low efflux ratio

Q: And the “PON2 esterase and lactonase activities” value (PON2)?
A: increased

Q: What about the “increase of the Tm of PON2 over vehicle group” value ([3]; Vuti 50 mg/kg for 5 days (Vuti 50)) of the same compound?
A: approximately 1.3 °C

Q: And the “increase of the Tm of PON2 over vehicle group” value ([3]; Vuti 100 mg/kg for 5 days (Vuti 100))?
A: ~1.4 °C
